Test results taken from patent US10626094B2 (La Jolla Institute of Allergy & Immunology, priority 2014, dated 2020).

Target: LMPTP-A (Low Molecular Weight Protein Tyrosine Phosphatase-A) enzyme (Homo sapiens (Human), UniProt P24666)
Experiment: LMPTP primary screening / LMPTP (OMFP) enzyme inhibition assay, fluorescence intensity
Assay type: biochemical
Details: LMPTP-A, OMFP substrate, method of Example 2; read-out: IC50
How it was run: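 Single-concentration screen, test compounds 20 μM final, […]. Enzyme (0.625 nM) and OMFP (400 μM) react 50 min at room temp, dark, in Bis-Tris buffer pH 6.0 containing DTT 1 mM and Triton X-100 0.01%. Read-out: fluorescence intensity.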

Chain of LMPTP-A (Low Molecular Weight Protein Tyrosine Phosphatase-A) enzyme (P24666 whole entry): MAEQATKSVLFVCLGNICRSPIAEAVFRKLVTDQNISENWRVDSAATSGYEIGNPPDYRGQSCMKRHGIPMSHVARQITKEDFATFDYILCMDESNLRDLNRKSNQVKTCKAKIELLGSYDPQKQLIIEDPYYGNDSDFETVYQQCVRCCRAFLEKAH

| Molecule | IC50 [nM] |
| --- | --- |
| c1ccc(-c2nc(NCCN3CCOCC3)c3ccccc3n2)cc1 [Compound I184, (2-morpholin-4-ylethyl)(2-phenylquinazolin-4-yl)amine] | > 5000 |
| COc1ccc(-c2cc(Nc3cccc(N(C)C)c3)c3ccccc3n2)cc1 [Compound I25, (3-{[2-(4-methoxyphenyl)(4-quinolyl)]amino}phenyl)dimethylamine] | 801 to 5000 |
| COc1ccc(-c2cc(Nc3ccccc3)c3ccccc3n2)cc1 [Compound G35, [2-(4-Methoxy-phenyl)-quinolin-4-yl]-phenyl-amine] | 801 to 5000 |
| COc1ccc(-c2cc(NCCCN3CCCCC3)c3cc(F)ccc3n2)cc1 [Compound G30, [6-Fluoro-2-(4-methoxy-phenyl)-quinolin-4-yl]-(3-piperidin-1-yl-propyl)-amine] | 801 to 5000 |
| Fc1ccccc1-c1cc(NCCCN2CCCCC2)c2ccccc2n1 [Compound G6, [2-(2-Fluoro-phenyl)-quinolin-4-yl]-(3-piperidin-1-yl-propyl)-amine] | 801 to 5000 |
| COC(=O)CNC(=O)c1ccc(-c2cc(NCCCN3CCCCC3)c3ccccc3n2)cc1 [Compound I69] | 801 to 5000 |
| O=C(NC1CC1)c1ccc(-c2cc(NCCCN3CCCCC3)c3ccccc3n2)cc1 [Compound I271] | 801 to 5000 |
| NC(=O)c1ccc(-c2cc(NCCCN3CCCCC3)c3ccccc3n2)cc1F [Compound I81] | 200 to 800 |
| CSc1ccc(-c2cc(NCCCN3CCCCC3)c3ccccc3n2)cc1 [Compound I169] | 801 to 5000 |
| COc1ccc(-c2cc(Nc3cccc(CN(C)C)c3)c3ccccc3n2)cc1 [Compound I39, [(3-{[2-(4-methoxyphenyl)(4-quinolyl)]amino}phenyl)methyl]dimethylamine] | 801 to 5000 |
| COc1ccc(-c2cc(NCCCN3CCCCC3)c3ccccc3n2)cc1OC [Compound I108] | 801 to 5000 |
| O=C(Nc1ccc(-c2cc(NCCCN3CCCCC3)c3ccccc3n2)cc1)c1ccccc1 [Compound I57] | 200 to 800 |
| c1ccc2[nH]c(-c3cc(NCCCN4CCCCC4)c4ccccc4n3)cc2c1 [Compound I124] | > 5000 |
| COc1ccc(-c2cc(Nc3ccc(F)cc3)c3ccccc3n2)cc1 [Compound G39, (4-fluorophenyl)[2-(4-methoxyphenyl)(4-quinolyl)]amine] | 801 to 5000 |
| CC(C)(C)OC(=O)n1c(-c2cc(NCCCN3CCCCC3)c3ccccc3n2)cc2ccccc21 [Compound I98, tert-butyl 2-{4-[(3-piperidylpropyl)amino]-2-quinolyl}indolecarboxylate] | > 5000 |
| (3-piperidylpropyl)[2-(3,4,5-trifluorophenyl)(4-quinolyl)]amine [Compound I127] | 801 to 5000 |
